From patent US20100190957A1, “SPECIFIC THERAPY AND MEDICAMENT USING INTEGRIN LIGANDS FOR TREATING CANCER” (priority 2007, published 2010)
Several values for one entry are separate records, joined by “and”; a condition that tells them apart may be missing. Identical values can stand only once. Entries after “also recorded” stand apart in the source; their conditions may differ. Each block holds one compound with its values, some of them ahead of it.

Legend:
[1] = test system: human umbilical vein endothelial cells (HUVECs); assay: Serum growth stimulation (proliferation) assay, Alamar Blue, HUVEC; type: cell-based
Procedure: (§1) The effect of integrin alpha V blocker EMD 121974 (Cilengitide) on the viability of human carcinoma cells were tested, in combination with vinorelbine and paclitaxel, respectively, in a cell viability assay, dependent on reduction of Alamar blue dye. Each agent alone could inhibiting carcinoma viability, used together the compounds show an advantagous and preferably synergistic inhibitory effect.
(§2) The methods established and described in detail previously (Goodman and Hahn a; b) were used to measure the effect of combinations of integrin inhibitors and chemotherapeutics on carcinoma cell and human endothelial cell proliferation.
(§3) Points were run in duplicate or in triplicate. Reagent blanks, containing media plus Alamar Blue without cells, were run on each plate. Blank values were subtracted from test values and were routinely 5-10% of uninhibited control values.
In the growth assay Cilengitide was tested in the range of 50 μM to 0.1 nM.
(§4) Chemotherapeutic agents and αv-integrin blockers were serially diluted alone or together (combination therapy). In some assays the chemotherapeutic agent was serially diluted alone or in combination with of alpha-v integrin blocker. Growth inhibition curves were plotted and a shift of the combination therapy curve to lower concentrations in relation to the single agent curves was interpreted as an additional effect, produced by combination versus monotherapy.
(§5) The αv-integrin competitive inhibitor Cilengitide (EMD 121974) was tested alone and in combination with vinorelbine in a serum growth stimulation assay using human carcinoma cells or human umbilical vein endothelial cells (HUVECs). In these assays cells are cultured in serum, or in an endothelial growth stimulation medium (Goodman & Hahn).

[2] = test system: recurrent glioblastoma (GBM); assay: Phase IIa trial of cilengitide single agent therapy in patients with recurrent glioblastoma
Procedure: (§6) Methods: In this multicenter, open-label, randomized, uncontrolled study, pts with GBM and measurable disease that had relapsed after previous therapy with temozolomide and radiotherapy were randomized to receive cilengitide at doses of either 500 mg or 2000 mg i.v., 2×/week, until progression. Histopathology diagnosis and MRI imaging were subject to independent blinded review. The primary endpoint was Progression Free Survival (PFS) at 6 months (mths). Secondary endpoints included response, survival, time to disease progression, safety, tolerability and pharmacokinetics.

[3] = test system: various brain tumors; details: humans; cited from earlier work
[4] = test system: recurrent glioblastoma (GBM); details: human, in vivo
Procedure: as §6

[5] = test system: U251 human glioblastoma cells; assay: Rat orthotopic glioblastoma model, radiotherapy / cilengitide scheduling experiments (survival); type: in vivo, NIH rnu nude rats; design: key to Status at Date of Termination: Sick = moribund and removed from study; Healthy = indicates sampled for tissue at date shown, but alive at this point; Alive = surviving at time point shown; details: for Days Post Implant / Status at Date of Termination: per animal, listed as Rt + EMD; for Days Post Implant: at date of termination, plus 7 subsequent daily boluses, 4 mg/kg
Procedure: NIH rnu nude rats are anaesthetized, restrained, and injected intracerebrally 1 mm retro orbitally, 3mm to the right of the bregma and at a depth of 2.5 mm with 5×10E5 U251 human glioblastoma cells suspended in 10 ul of culture medium, using a #2701 Hamilton syringe fitted with a 26 gauge needle, essentially as previously described (Engebraaten et al., 1999). After 14 days, cilengitide (4 mg/kg) is given as an intraperitoneal bolus in PBS, at various time (8 h, 4 h, 2 h, 1 h) prior to a single treatment with single, collimated, dorsal-ventral beam of 6 MV x-rays, so that 95-100% of the central axis dose of 25 Gy hit the tumor volume (Kim et al., 1999). Each of the 7 subsequent days the animals also received an identical i.p. bolus of cilengitide. The animals are maintained under ad libitum food and drink until they become moribund, or are sampled for tissue analysis (in the t-4 and t-8 h groups, where the animals are healthy past 230 days post tumor injection). A Kaplan-Meier survival curve is calculated and plotted (FIG. 1) from the raw data (Table 1). All animals in the RT monotherapy group died by 120 d.

[6] = test system: newly diagnosed glioblastoma (GBM); assay: Phase I/IIa trial of cilengitide and temozolomide with concomitant radiotherapy in newly diagnosed glioblastoma; type: in vivo, human
Procedure: Patients and methods: Fifty-two pts (PS 0-1: 92%, 2: 8%; median age 57 yrs) after biopsy (n=9/17%) or tumor resection (n=43/83%) were treated with standard TMZ/RT (Stupp et al. NEJM 2005). In addition Cilengitide (500 mg i.v., 2×/week) was started one week before TMZ/RT and given throughout for the duration of chemotherapy or until progression. Primary endpoint was progression free survival rate at 6 months (target: 65%). Patients were followed with MRI every 2 months. Histopathologic diagnosis and MRI imaging were independently reviewed, MGMT promotor methylation status was assessed in 45 (86.5%) pts.

[7] = test system: renal carcinoma (A498); assay: Proliferation / cell viability assay, Alamar Blue, A498; type: cell-based, human; details: for EC50: Homo sapiens, A498, agent alone or + Cilengitide (2 μM constant)
Procedure: as §1, §2, §3, §4, §5
Cilengitide concentration is 2μM (constant).

[8] = test system: NSCLC A549; assay: Proliferation / cell viability assay, Alamar Blue, A549; type: cell-based, human; details: for EC50: Homo sapiens, A549, agent alone or + Cilengitide
Procedure: as §1, §2, §3, §4, §5

[9] = test system: SCCHN (Detroit562); assay: Proliferation assay, Detroit 562; type: cell-based, human; details: Cilengitide 2 μM (constant)
[10] = Homo sapiens, HUVEC, agent alone
[11] = Homo sapiens, HUVEC, in combination with 2 μM Cilengitide

SMILES: CC(C)[C@H]1C(=O)N[C@@H](CCCN=C(N)N)C(=O)NCC(=O)N[C@@H](CC(=O)O)C(=O)N[C@H](Cc2ccccc2)C(=O)N1C [Cilengitide, cyclo-(Arg-Gly-Asp-DPhe-NMeVal)]
IC50 ([1]; agent alone): 700 nM | 12 mth overall survival (OS) rate ([2]; 500 mg arm): 24.4% | median Overall Survival (mOS) ([2]; 500 mg arm, 95% CI 5.2-9.3 mths): 6.5 mths | PFS rate at 6 mths ([2]; 500 mg or 2000 mg i.v. 2x/week, both arms, n=13/81 pts): 16.1% | 12 mth OS rate ([2]; 2000 mg arm): 37.5% | median Overall Survival (mOS) ([2]; 2000 mg arm, 95% CI 6.3-15.7 mths): 9.9 mths | grade 4 therapy related AEs ([2]; 500 and 2000 mg): No grade 4 therapy related AEs were reported | Treatment related NCI CTC grade 3 adverse event: arthralgia/myalgia ([2]; at 500 mg): 1 patient | Treatment related NCI CTC grade 3 adverse event: elevated liver enzymes ([2]; at 500 mg): 1 patient | Treatment related NCI CTC grade 3 adverse event: weight increase/edema ([2]; at 2000 mg): 1 patient | pts still progression-free and on treatment at the time the abstract was issued ([2]; both arms, six of 81 pts): 7.4% | tolerability in single agent therapy ([2]; two dose levels (500 and 2000 mg)): tolerated well | MTD / side effect profile [3]: no known MTD in humans | CTC grade 2 cerebral hemorrhage [4]: One | Days Post Implant ([5]; cilengitide bolus 4 mg/kg i.p. 1 hour pre-irradiation (Rt 25 Gy)): 112 days and 113 days and 130 days and 141 days | Days Post Implant ([5]; cilengitide bolus 4 mg/kg i.p. 2 hours pre-irradiation (Rt 25 Gy)): 120 days and 147 days and 162 days and 196 days | Days Post Implant ([5]; cilengitide bolus 4 mg/kg i.p. 4 hours pre-irradiation (Rt 25 Gy)): 238 Days (2×) and 254 Days (2×) | Days Post Implant ([5]; cilengitide bolus 4 mg/kg i.p. 8 hours pre-irradiation (Rt 25 Gy)): 287 Days (2×) and 257 Days (2×) | Status at Date of Termination ([5]; cilengitide 4 mg/kg 1 hour pre-irradiation (Rt 25 Gy)): (Sick) Sep. 1, 2005; also recorded: (Sick) Sep. 2, 2005; also recorded: (Sick) Sep. 19, 2005; also recorded: (Sick) Sep. 30, 2005 | Status at Date of Termination ([5]; cilengitide 4 mg/kg 2 hours pre-irradiation (Rt 25 Gy)): (Sick) Aug. 10, 2005; also recorded: (Sick) Sep. 6, 2005; also recorded: (Sick) Sep. 21, 2005; also recorded: (Sick) Oct. 25, 2005 | Status at Date of Termination ([5]; cilengitide 4 mg/kg 4 hours pre-irradiation (Rt 25 Gy)): (Healthy) Nov. 29, 2005; also recorded: (Alive) Dec. 15, 2005 | Status at Date of Termination ([5]; cilengitide 4 mg/kg 8 hours pre-irradiation (Rt 25 Gy)): (Alive) Dec. 15, 2005; also recorded: (Healthy) Nov. 15, 2005 | animals healthy past days post tumor injection ([5]; t-4 and t-8 h groups, cilengitide 4 mg/kg i.p. + 25 Gy): > 230 days | haematological grade 3 and 4 toxicity: neutropenia ([6]; Cilengitide 500 mg + TMZ/RT, 5/52): 9.6% | haematological grade 3 and 4 toxicity: thrombocytopenia ([6]; Cilengitide 500 mg + TMZ/RT, 7/52): 13.4% | haematological grade 3 and 4 toxicity: lymphopenia ([6]; Cilengitide 500 mg + TMZ/RT, 28/52): 53.8% | Treatment related non-hematologic grade 3 toxicities, patients ([6]; Cilengitide 500 mg + TMZ/RT, n=3/52): 5.7% | tolerability of the combination with TMZ/RT ([6]; Cilengitide 500 mg i.v. 2x/week + TMZ/RT): well tolerated | patients progression free at 6 months (PFS-6) ([6]; Cilengitide 500 mg i.v. 2x/week added to standard TMZ/RT, 34/52, 95% CI 50.9-78.0%): 65.4% | sigmoid perforation (grade 2) ([6]; patient with a history of sigmoid diverticulosis): One | PFS-6 rate ([6]; subgroup with methylated MGMT promoter (23/52), Cilengitide 500 mg + TMZ/RT, historical control 69%): 91% | PFS-6 rate ([6]; subgroup with unmethylated MGMT promotor (22/52), Cilengitide 500 mg + TMZ/RT, historical control 40%): 40.9%

EC50 [7]: 100 nM | EC50 [8]: 8 nM
SMILES: CC(=O)O[C@H]1C(=O)[C@@]2(C)[C@H]([C@H](OC(=O)c3ccccc3)[C@]3(O)C[C@H](OC(=O)[C@H](O)[C@@H](NC(=O)c4ccccc4)c4ccccc4)C(C)=C1C3(C)C)[C@]1(OC(C)=O)CO[C@@H]1C[C@@H]2O [Paclitaxel]
IC50 [1, 10]: 10 nM | IC50 [1, 11]: 0.05 nM

EC50 [7]: 60 nM | EC50 [8]: 8 nM
SMILES: CCC1=C[C@@H]2CN(C1)Cc1c([nH]c3ccccc13)[C@@](C(=O)OC)(c1cc3c(cc1OC)N(C)[C@H]1[C@@](O)(C(=O)OC)[C@H](OC(C)=O)[C@]4(CC)C=CCN5CC[C@]31[C@@H]54)C2 [Vinorelbine]
effect of combination with Cilengitide on SCCHN (Detroit562) cell proliferation [9]: synergistically enhanced | IC50 [1, 10]: 20 nM | IC50 [1, 11]: 0.8 nM | effect of combination with Cilengitide on A498 cell proliferation ([7]; Cilengitide constant at 2 μM): synergistically enhanced | effect of combination with Cilengitide on growth of A549 [8]: synergistically enhanced
